Consider 4 compounds from ChEMBL document CHEMBL3593185, “Synthesis of new fluorinated analogs of GABA, Pregabalin bioisosteres, and their effects on [(3)H]GABA uptake by rat brain nerve terminals” (Bioorg Med Chem, 2015).

Holding throughout (type): functional, subcellular
The species named for experiment [1] is Rattus norvegicus. As to the kind of experiment: Increase in [3H]GABA uptake initial velocity in Wistar rat synaptosomes measured per mg of protein pretreated at 100 uM for 20 mins with combined application of 50 uM SNAP5114 GAT3 blocker by scintillation counting.
Experiment [2] is filed under the species Rattus norvegicus. Nature of the experiment: Increase in [3H]GABA uptake initial velocity in Wistar rat synaptosomes measured per mg of protein at 200 uM by scintillation counting.
The species named for experiment [3] is Rattus norvegicus. As to the kind of experiment: Increase in [3H]GABA uptake initial velocity in Wistar rat synaptosomes measured per mg of protein at 100 uM by scintillation counting (reference value: 205.4 +/- 5 pmol/min*mg of protein).
For experiment [4], the species on record is Rattus norvegicus. As to the kind of experiment: Increase in [3H]GABA uptake initial velocity in Wistar rat synaptosomes measured per mg of protein pretreated at 200 uM for 20 mins by scintillation counting.
The species entered for experiment [5] is Rattus norvegicus. As to the kind of experiment: Increase in [3H]GABA uptake initial velocity in Wistar rat synaptosomes measured per mg of protein pretreated at 100 uM for 20 mins by scintillation counting (reference value: 153 +/- 7.7 pmol/min*mg of protein).
The species named for experiment [6] is Rattus norvegicus. As to the kind of experiment: Increase in [3H]GABA uptake initial velocity in Wistar rat synaptosomes measured per mg of protein pretreated at 100 uM for 20 mins with combined application of 30 uM NO-711 GAT1 blocker by scintillation counting.

Calls of active or inactive are those of the source. The rule behind the calls is not given here.

As to `NC[C@@](O)(CC(=O)O)C(F)(F)F`, the Activity in experiment [1] was 128 pmol/min/mg; in experiment [3] it was 194 pmol/min/mg; in experiment [5] it was 189 pmol/min/mg; in experiment [6] it was 27.9 pmol/min/mg. Further, the outcome in experiment [2] was inactive. In addition, the result in experiment [4] was Active.
For `CC(C)C[C@H](CN)CC(=O)O`, the Activity in experiment [3] amounted to 211 pmol/min/mg; in experiment [5], 182 pmol/min/mg. Besides, the outcome in experiment [6] was inactive.
Take `NCC(CC(=O)O)C(F)(F)C(F)F` (racemic): the Activity in experiment [1] came out at 125 pmol/min/mg; in experiment [3], 198 pmol/min/mg; in experiment [5], 188 pmol/min/mg; in experiment [6], 27.4 pmol/min/mg. In addition, the outcome in experiment [2] was inactive. Also, the outcome in experiment [4] was Active.
As for `NC[C@@H](CC(=O)O)C(F)(F)F`, the Activity in experiment [1] turned out to be 120 pmol/min/mg; in experiment [3] it was 211 pmol/min/mg; in experiment [5] it was 179 pmol/min/mg; in experiment [6] it was 23.7 pmol/min/mg. The result in experiment [2] was inactive. In experiment [4], the result was Active.
